# Patent US20110262450A1, “MODULATORS OF MONOGLYCERIDE LIPASE IN THE TREATMENT OF ACNE, OF SEBORRHOEIC DERMATITIS OR OF HYPERSEBORRHOEA” (priority 2008, published 2011)
# What was measured:
# MGLL = experiment: Expression of MGLL in rat sebaceous gland (epidermal split) after topical PPARgamma agonist treatment, real-time PCR; assay type: in vivo; details: female FUZZY rats, topical 1% in acetone, standardized to 18S, versus carrier group
# Description: • Strain: Ico:Hsd:FUZZY-fz • Gender: female • Age: 10 weeks Number per batch: 40 (8 animals per group) Treatment: Route of administration: topical • Compound/batch: PPARgamma agonists: • A: 5-{4-[2-(methylpyridin-2-ylamino)ethoxy]-benzyl}thiazolidine-2,4-dione • B: (2-methoxyethoxymethoxy)naphthalene-2-carboxylic acid [4′-(2,4-dioxothiazolidin-5-ylmethyl)biphenyl-3-ylmethyl]methylamide or rosiglitazone • C: (S)-2-ethoxy-3-{4-[6-(3-heptyl-1-methyl-ureido)pyridin-2-yl)phenyl}propionic acid • Doses: 1% • Carrier: acetone (001) • Duration 96 hours Method of evaluation: The animals are weighed at the beginning and at the end of the study. Skin biopsies are taken (6 samples of skin excised per rat) in order to analyse the expression of the genes (RNA extraction, reverse transcriptase and real-time PCR). The samples are stored overnight at 4° C. before incubation in 1M sodium bromide (NaBr) for 2 hours at 37° C. After incubation, the samples are separated into epidermis or dermis. The epidermal samples are stored at 20° C. […] PCRs are carried out, beginning with the cDNAs originating from the epidermal splits containing sebaceous glands from control rats or rats treated with a PPARγ agonist: the mRNA is extracted using a column and quantified. The quality of the mRNAs is measured and is represented by the 18S/28S ratio. The results are standardized with respect to 18S, expressed as relative induction versus untreated animals (carrier group). The statistical analysis is obtained using internal software based on a modified Monte Carlo statistical analysis.
# [1] = system: Monoglyceride lipase (MGLL); experiment: Expression of MGLL in Fuzzy rat epidermal split after topical treatment (Affymetrix transcriptome analysis); assay type: in vivo; details: female FUZZY rats, topical 1% once a day for 8 days, Affymetrix 1388644_at, control condition 214
# Description: The studies are carried out in female Fuzzy rats (Hsd: Fuzzy-fz) ten weeks old at the beginning of the study. The animals are treated at a dose of 1% (PPARg agonist rosiglitazone in solution in acetone) once a day for 8 days. Two hours after the final treatment, the animals are sacrificed by euthanasia and the skin on the back is removed. After incubation in dispase, the epidermis carrying the sebaceous glands is detached from the dermis (epidermal split). After grinding of the samples, the mRNA is prepared using Qiagen columns, in accordance with the supplier's instructions. The material thus prepared is subjected to large-scale transcriptome analysis on an Affymetrix platform. The data are subsequently standardized and, after statistical analysis, the results produced are expressed in arbitrary expression units (see below) accompanied, for each piece of data, by a statistical value for presence of the transcript (presence=1; absence=0).
Compound,"MGLL relative induction, 0 hours (MGLL)","MGLL relative induction, 8 hours (MGLL)","MGLL relative induction, 24 hours (MGLL)","MGLL relative induction, 48 hours (MGLL)","MGLL relative induction, 96 hours (MGLL)",Expression after treatment with 1% rosiglitazone [1]
"(2-methoxyethoxymethoxy)naphthalene-2-carboxylic acid [4′-(2,4-dioxothiazolidin-5-ylmethyl)biphenyl-3-ylmethyl]methylamide",1,1.17,2.21,3.12,1.61,–
CN(CCOc1ccc(CC2SC(=O)NC2=O)cc1)c1ccccn1 (stereo not shown) [rosiglitazone],–,–,–,–,–,576 arbitrary expression units
"CCCCCCCNC(=O)N(C)c1cccc(-c2ccc(C[C@H](OCC)C(=O)O)cc2)n1 [C, (S)-2-ethoxy-3-{4-[6-(3-heptyl-1-methyl-ureido)pyridin-2-yl)phenyl}propionic acid]",1,5.01,3.90,3.88,3.86,–
"CN(CCOc1ccc(CC2SC(=O)NC2=O)cc1)c1ccccn1 (stereo not shown) [A, 5-{4-[2-(methylpyridin-2-ylamino)ethoxy]-benzyl}thiazolidine-2,4-dione]",1,2.37,5.06,3.13,5.76,–
